As a reminder, the IC50 is the concentration at which inhibition is half-maximal.

Data set [1] deals with PCa cell. The conditions noted are these: in vitro and in vivo (Al-Jameel, W. et al. 2017); cited from earlier work.
The subject of data set [2] is DU-145 cells. As to the kind of experiment: MTT cytotoxicity assay, single drugs and combinations, DU-145 cells. The data set is classed as cell-based. The conditions noted are these: Homo sapiens; DU-145, MTT, 72-hour incubation.
Data set [3] concerns 22Rv1 cells. Description: cells. To be noted: Homo sapiens, 22Rv1, 72 h, read-out: cytotoxicity IC50.
Data set [4] in a line: MTT cytotoxicity assay, WI-38 cells (normal lung cell-line). Format: cell-based. The conditions noted are these: human, WI-38, MTT, 72-hour incubation. In general terms: Formazan colour is commonly taken as a measure of viable cells.
Data set [5] concerns PC3 cells. As to the kind of experiment: MTT cytotoxicity assay, single drugs and combinations, PC3 cells. The data set is classed as cell-based. The conditions noted are these: Homo sapiens, PC-3, 72-hour incubation.
Data set [6] concerns PC3 cells implanted subcutaneously. Description: Subcutaneous PC3 tumor growth in male BALB/c nude mice. Format: in vivo. To be noted: ip. On the procedure:
Male BALB/c nude mice (BALB/cOlaHsd-Foxnlnu, 20-30 g, 7-8 weeks old) (Envigo RMS Inc, Indianapolis, Ind.) were used for all experiments. Animals were housed individually at room temperature and were kept on a 12:12-hour light:dark cycle with access to food and water ad libitum. Euthanasia was carried out utilizing CO2 asphyxiation. All of the experiments were approved by the Stony Brook University Animal Care and Use Committee.
Male BALB/c nude mice were subcutaneously inoculated with PC3 cells. Briefly, cells (1×10^6 per mouse) were resuspended in 100 μL of a 1:1 mixture of phosphate-buffered saline (PBS):Matrigel (Corning Inc, Corning, N.Y.) and implanted into a single dorsal lateral flank using a 21G needle. Tumor length (L) and tumor width (W) were measured twice weekly using digital calipers, and tumor volume (V) was calculated as (V═[L×W2]/2). When tumor volume reached approximately 150 to 200 mm3, animals were grouped and drug administration commenced. Humane endpoints for all animals were as follows: animals carrying a tumor burden greater than 35 days, body weight (which was recorded twice weekly) decreasing by greater than 15%, tumor ulceration, paralysis, failure to groom, bleeding, respiratory distress, and/or tumor volume reaching 1500 mm3.
SBFI-102, SBFI-103, and docetaxel were each reconstituted in a 1:1:8 vehicle consisting of dimethyl sulfoxide (DMSO) (Thermo Fisher Scientific, Hampton, N.H.):Cremaphor-EL (Sigma-Aldrich):saline. SBFI-102 and SBFI-103 were administered via intraperitoneal injection (ip) using a 27G needle at 20 mg/kg daily. Docetaxel was administered i.p. at 5 or 10 mg/kg weekly. All drugs were administered in a volume of 10 μL/g body weight.
All data were obtained from at least three independent experiments and then values described in each figure legend depict each independent trial or animal. Data for all in vivo experiments were analyzed using a one-way analysis of variance with the Tukey post hoc test (GraphPad Prism, version 8.0.2). Data are represented as means±SEM and P<0.05 was considered statistically significant. […]

Data set [7] is described as follows: MTT cytotoxicity assay, RWPE-1 cells (normal prostate cell-line). Format: cell-based. To be noted: human, RWPE-1, MTT, 72-hour incubation.
The mark [8] stands for this setting: 20 mg/kg, once daily, from day 15.

For the compound `O=C(O)C1[C@H](c2ccccc2)C(C(=O)Oc2cccc3ccccc23)[C@H]1c1ccccc1` (some centres unmarked) [SBFI-26], in data set [1], the “effect on PCa cell growth, migration, invasion, tumor formation and metastasis” value is “suppresses PCa cell growth, migration, invasion, tumor formation, and metastasis”.
Regarding `COc1ccccc1C1[C@H](C(=O)O)[C@H](c2ccccc2OC)[C@H]1C(=O)Oc1cccc2ccccc12` (some centres unmarked) [SBFI-102], the IC50 turned out to be 8.9 µM in data set [2], 10.1 µM in data set [3] and 11.4 µM in data set [5]. For the same compound, the IC50 at 72 h was 29.4 µM in data set [4] and 26 µM in data set [7]. The tumor growth entry in data set [6] (setting [8]) is listed as “significantly reduced tumor growth”.
With `COc1ccccc1C1[C@H](C(=O)O)[C@H](c2ccccc2OC)[C@H]1C(=O)OCC1c2ccccc2-c2ccccc21` (some centres unmarked) [SBFI-103], the IC50 stood at 3.3 µM in data set [2], 3.1 µM in data set [3] and 6.3 µM in data set [5]. For the same compound, the IC50 at 72 h came out at 29.6 µM in data set [4] and 20.6 µM in data set [7]. Also, the tumor growth entry in data set [6] (setting [8]) was “significantly reduced tumor growth”.
With `CO[C@H]1C(=O)[C@]2(C)[C@@H](OC)C[C@H]3OC[C@@]3(OC(C)=O)[C@H]2[C@H](OC(=O)c2ccccc2)[C@]2(O)C[C@H](OC(=O)[C@H](O)[C@@H](NC(=O)OC(C)(C)C)c3ccccc3)C(C)=C1C2(C)C` [cabazitaxel, reference compound], the IC50 turned out to be 0.0002 µM in data set [2], 0.0003 µM in data set [3] and 0.0016 µM in data set [5].
As to `CC(=O)O[C@@]12CO[C@@H]1C[C@H](O)[C@@]1(C)C(=O)[C@H](O)C3=C(C)[C@@H](OC(=O)[C@H](O)[C@@H](NC(=O)OC(C)(C)C)c4ccccc4)C[C@@](O)([C@@H](OC(=O)c4ccccc4)[C@H]21)C3(C)C` [docetaxel, reference compound], the IC50 was 0.0008 µM in data set [2], 0.0003 µM in data set [3] and 0.0019 µM in data set [5]. In data set [6] (docetaxel 10 mg/kg, once weekly), the tumor growth entry is recorded as “near complete inhibition of growth”.

Source of the values: patent publication US20230017948A1, “COMBINATION THERAPY USING FABP5 INHIBITORS WITH TAXANES FOR TREATMENT OF CANCER” (The Research Foundation for The State University of New York, priority 2019, published 2023).
